Laboratory results reported in ChEMBL document CHEMBL4130353, “2-Substituted 3,7,8-trimethylnaphtho[1,2-b]furan-4,5-diones as specific L-shaped NQO1-mediated redox modulators for the treatment of non-small cell lung cancer” (Eur J Med Chem, 2017).
Active and inactive are the calls of the source. The rule behind the calls is not given here.

Assays:
[1] = biological target: NAD(P)H dehydrogenase [quinone] 1 (Homo sapiens) (UniProt P15559); test: Substrate activity at recombinant human NQO1 expressed in Escherichia coli assessed as reduction rate by measuring umol of NADPH utilized per umol of enzyme at 10 uM preincubated for 3 mins followed by NADPH addition measured at 2 secs interval for 5 mins by UV-Vis spectroscopy
NAD(P)H dehydrogenase [quinone] 1 (Homo sapiens), sequence (P15559 whole entry): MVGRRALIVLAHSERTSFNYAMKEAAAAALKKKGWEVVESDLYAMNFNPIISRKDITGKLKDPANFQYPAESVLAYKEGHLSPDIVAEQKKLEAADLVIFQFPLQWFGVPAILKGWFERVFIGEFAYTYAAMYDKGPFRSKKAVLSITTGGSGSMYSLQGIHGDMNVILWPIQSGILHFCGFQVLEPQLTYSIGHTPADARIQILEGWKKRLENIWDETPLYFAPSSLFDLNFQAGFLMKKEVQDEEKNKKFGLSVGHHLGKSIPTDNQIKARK

[2] = biological target: T1, NADPH--cytochrome P450 reductase (Homo sapiens, UniProt P16435); test: Substrate activity at human CPR expressed in baculovirus expression system assessed as reduction rate by measuring umol of NADPH utilized per umol of enzyme at 10 uM preincubated for 3 mins followed by NADPH addition measured at 2 secs interval for 5 mins by UV-Vis spectroscopy; format: ADME
T1 sequence (P16435 whole entry): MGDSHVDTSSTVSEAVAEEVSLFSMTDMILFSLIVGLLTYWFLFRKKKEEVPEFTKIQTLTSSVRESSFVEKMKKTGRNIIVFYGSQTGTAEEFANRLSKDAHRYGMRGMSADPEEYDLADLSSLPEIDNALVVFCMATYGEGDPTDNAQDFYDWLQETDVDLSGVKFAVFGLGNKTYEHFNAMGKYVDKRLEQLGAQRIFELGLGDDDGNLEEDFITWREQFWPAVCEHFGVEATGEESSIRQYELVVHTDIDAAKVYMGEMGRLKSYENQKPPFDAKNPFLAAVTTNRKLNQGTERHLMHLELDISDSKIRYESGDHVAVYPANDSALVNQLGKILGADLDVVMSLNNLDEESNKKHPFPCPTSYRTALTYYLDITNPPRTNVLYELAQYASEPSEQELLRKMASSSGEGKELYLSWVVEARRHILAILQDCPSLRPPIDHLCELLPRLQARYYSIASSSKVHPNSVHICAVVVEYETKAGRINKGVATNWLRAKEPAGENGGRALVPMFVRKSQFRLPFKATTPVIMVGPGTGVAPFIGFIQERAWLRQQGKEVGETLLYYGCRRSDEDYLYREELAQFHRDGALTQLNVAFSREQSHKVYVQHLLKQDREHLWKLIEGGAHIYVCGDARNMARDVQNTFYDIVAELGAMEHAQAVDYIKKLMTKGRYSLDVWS

[3] = Solubility of the compound in diluted HCl buffer at pH 3; format: physicochemical
[4] = system: NCI-H1299; test: Cytotoxicity against human NCI-H1299 cells assessed as assessed as cell growth inhibition for 24 hrs followed by compound washout measured after 72 hrs by MTT assay; format: functional, cell-based
[5] = system: MCF7; test: Cytotoxicity against human MCF7 cells assessed as cell growth inhibition preincubated for 24 hrs followed by compound washout measured after 72 hrs by MTT assay; format: functional, cell-based
[6] = system: A549/TR; test: Cytotoxicity against human A549/TR cells assessed as cell growth inhibition preincubated for 24 hrs followed by compound washout measured after 72 hrs by MTT assay; format: functional, cell-based
[7] = system: NCI-H596; test: Cytotoxicity against human NCI-H596 cells assessed as cell growth inhibition preincubated for 24 hrs followed by compound washout measured after 72 hrs by MTT assay; format: functional, cell-based
[8] = system: A549; test: Effect on total AKT protein levels in human A549 cells at 10 uM after 3 hrs in presence of NAC by Western blot analysis relative to control; format: ADME, cell-based; conditions: a549, 3 h
[9] = biological target: NAD(P)H dehydrogenase [quinone] 1 (Homo sapiens) (UniProt P15559); test: Substrate activity at NQO1 in human A549 cells assessed as induction of ROS-induced Akt phosphorylation at S473 at 10 uM after 3 hrs by Western blot analysis relative to control; format: cell-based
[10] = biological target: NAD(P)H dehydrogenase [quinone] 1 (Homo sapiens) (UniProt P15559); test: Substrate activity at NQO1 in human A549 cells assessed as induction of ROS-induced Akt phosphorylation at S473 at 10 uM after 3 hrs in presence of DIC by Western blot analysis relative to control; format: cell-based
[11] = biological target: NAD(P)H dehydrogenase [quinone] 1 (Homo sapiens) (UniProt P15559); test: Substrate activity at NQO1 in human A549 cells assessed as induction of ROS-induced Akt phosphorylation at […] at 10 uM after 3 hrs by Western blot analysis relative to control; format: cell-based
[12] = biological target: NAD(P)H dehydrogenase [quinone] 1 (Homo sapiens) (UniProt P15559); test: Substrate activity at NQO1 in human A549 cells assessed as induction of ROS-induced Akt phosphorylation at […] at 10 uM after 3 hrs in presence of NAC by Western blot analysis relative to control; format: cell-based
[13] = biological target: NAD(P)H dehydrogenase [quinone] 1 (Homo sapiens) (UniProt P15559); test: Substrate activity at NQO1 in human A549 cells assessed as induction of ROS-induced Akt phosphorylation at […] at 10 uM after 3 hrs in presence of DIC by Western blot analysis relative to control; format: cell-based
[14] = biological target: NAD(P)H dehydrogenase [quinone] 1 (Homo sapiens) (UniProt P15559); test: Substrate activity at NQO1 in human A549 cells assessed as induction of ROS-induced JNK phosphorylation at 5 uM after 3 hrs by Western blot analysis relative to control; format: cell-based
[15] = biological target: NAD(P)H dehydrogenase [quinone] 1 (Homo sapiens) (UniProt P15559); test: Substrate activity at NQO1 in human A549 cells assessed as induction of ROS-induced JNK phosphorylation at 10 uM after 3 hrs by Western blot analysis relative to control; format: cell-based
[16] = biological target: NAD(P)H dehydrogenase [quinone] 1 (Homo sapiens) (UniProt P15559); test: Substrate activity at NQO1 in human A549 cells assessed as induction of ROS-induced p38 phosphorylation at T180/Y182 at 10 uM after 3 hrs in presence of NAC by Western blot analysis relative to control; format: cell-based
[17] = biological target: NAD(P)H dehydrogenase [quinone] 1 (Homo sapiens) (UniProt P15559); test: Substrate activity at NQO1 in human A549 cells assessed as induction of ROS-induced p38 phosphorylation at T180/Y182 at 10 uM after 3 hrs in presence of DIC by Western blot analysis relative to control; format: cell-based
[18] = system: A549; test: Effect on total ERK protein levels in human A549 cells at 10 uM after 3 hrs by Western blot analysis relative to control; format: ADME, cell-based; conditions: a549, 3 h
[19] = system: A549; test: Effect on total ERK protein levels in human A549 cells at 10 uM after 3 hrs in presence of NAC by Western blot analysis relative to control; format: ADME, cell-based; conditions: a549, 3 h
[20] = biological target: NAD(P)H dehydrogenase [quinone] 1 (Homo sapiens) (UniProt P15559); test: Substrate activity at NQO1 in human A549 cells assessed as induction of ROS-induced ERK phosphorylation at 5 uM after 3 hrs by Western blot analysis relative to control; format: cell-based
[21] = biological target: NAD(P)H dehydrogenase [quinone] 1 (Homo sapiens) (UniProt P15559); test: Substrate activity at NQO1 in human A549 cells assessed as induction of ROS-induced JNK phosphorylation after 3 hrs by Western blot analysis; format: cell-based
[22] = system: A549; test: Induction of apoptosis in human A549 cells assessed as nuclei condensation at 0.1 to 5 uM after 24 hrs by DAPI-staining based microscopy; format: functional, cell-based
[23] = system: A549; test: Induction of apoptosis in human A549 cells assessed as increase in cleaved PARP expression at 10 uM after 24 hrs in presence of NAC by Western blot analysis; format: functional, cell-based
[24] = system: A549; test: Induction of apoptosis in human A549 cells assessed as increase in cleaved PARP expression at 10 uM after 24 hrs in presence of DIC by Western blot analysis; format: functional, cell-based
[25] = system: A549; test: Reduction of intracellular NADPH levels in human A549 cells xenografted in athymic nude mouse at 15 to 30 mg/kg, iv administered every other day for 3 weeks by fluorescent NADP+/NADPH detection based assay; format: functional, organism-based
[26] = system: A549; test: Reduction of intracellular GSH levels in human A549 cells xenografted in athymic nude mouse at 15 to 30 mg/kg, iv administered every other day for 3 weeks by fluorescence-based assay; format: functional, organism-based

Activity [1]: 1520 µmol/min
Activity [2]: 73 µmol NADPH/min/µmol enzyme
solubility [3]: > 1000 µg/mL
fold change (FC) [8]: 1.07
fold change (FC) [9]: 2.05
fold change (FC) [10]: 1.36
fold change (FC) [11]: 4.18
fold change (FC) [12]: 2.8
fold change (FC) [13]: 1.96
fold change (FC) [14]: 25.4
fold change (FC) [15]: 30.5
fold change (FC) [16]: 11.2
fold change (FC) [17]: 9.2
fold change (FC) [18]: 1.02
fold change (FC) [19]: 1.11
fold change (FC) [20]: 2.41
Activity [21]: Dose-dependent effect
SMILES: Cc1cc2c(cc1C)-c1oc(CNc3ccc(CN4CCOCC4)cc3)c(C)c1C(=O)C2=O
IC50 [4]: 3.8 µM
IC50 [5]: 4.7 µM
IC50 [6]: 2200 nM
IC50 [7]: 30 µM
Activity [22]: Active
Activity [23]: inactive
Activity [24]: inactive
Activity [25]: Active
Activity [26]: Active
